# From US9096852B2, “Inhibitors of micro-RNAs for use for preventing and/or attenuating skin ageing and/or for hydrating skin” (CHANEL PARFUMS BEAUTE, priority 2010, dated 2015)
# Entries after “also recorded” stand apart in the source; their conditions may differ.
# Experiments:
# Mir 130a = assay: Screening of active compounds: miR-130a expression by real time PCR in keratinocytes; format: cell-based, human; conditions: 48 hours
# Procedure: (§1) Neonatal Human Primary Epidermal Keratinocytes (Hekn, Cascade, Invitrogen, Carlsbad, Calif., USA) were cultured in EpiLife medium added with HKGS growth supplements (Cascade). Cells were constantly kept subconfluent in order to avoid triggering of a differentiation process. Cells were passaged usually once a week, at each passage the harvested cells number and seeded cell number were recorded in order to calculate the population doublings occurring between passages and the population doubling time. At passage 2 300.000 keratinocytes were plated in 60 mm dishes. The day after the cells were treated with the compounds at the indicated concentration for 48 hours without changing of the media. Cells were collected by scraping in medium. Cells were centrifuged at 800 g for 5 min and RNA was extracted.
# Total RNA from cells was isolated using mirVana mirRNA Isolation Kit (Ambion) by following the manufacturer's protocol for total RNA extraction. Total RNA was quantified using a NanoDrop Spectophotometer (Thermo Scientific, Delaware, USA) and RNA quality was controlled on an agarose gel. For microRNA detection, RNA was reverse transcribed using TaqMan MicroRNA Reverse Transcription kit and qRT-PCR was performed with TaqMan universal master mix (Applied Biosystem) and specific primers for miR-130a, -138, -181a and -191. U18 was used as an internal control (Applied Biosystem). The expression of each gene and miR was defined from the threshold cycle (Ct), and relative expression levels were calculated by using the 2-ΔΔCt method after normalization with reference to the expression of the housekeeping gene U18.
# The following compounds were tested according to the process of the invention, and the following results were obtained: […]
# Mir 191 = assay: Screening of active compounds: miR-191 expression by real time PCR in keratinocytes; format: cell-based, human; conditions: 48 hours, compound at 6. 10-5%
# Procedure: as §1
# Total RNA from cells was isolated using mirVana mirRNA Isolation Kit (Ambion) by following the manufacturer's protocol for total RNA extraction. Total RNA was quantified using a NanoDrop Spectophotometer (Thermo Scientific, Delaware, USA) and RNA quality was controlled on an agarose gel. […] The expression of each gene and miR was defined from the threshold cycle (Ct), and relative expression levels were calculated by using the 2-ΔΔCt method after normalization with reference to the expression of the housekeeping gene U18. […]
# Mir 181a = assay: Screening of active compounds: miR-181a expression by real time PCR in keratinocytes; format: cell-based, human; conditions: 48 hours
# Procedure: as §1, with “extracted. Total RNA from cells was isolated using […] Isolation Kit (Ambion) by following the manufacturer's protocol for total RNA extraction. Total RNA was quantified using a NanoDrop Spectophotometer (Thermo Scientific, Delaware, USA) and RNA quality was controlled on an agarose gel. […] The expression of each gene and miR was defined from the threshold cycle (Ct), and relative expression levels were calculated by using the 2-ΔΔCt method after normalization with reference to the expression of the housekeeping gene U18. […]” for “extracted.”
# [1] = test system: Sirt-1 3′UTR miR-181a del; assay: Luciferase reporter assay, Sirt-1 3′UTR miR-181a del, HEK 293E cells; format: cell-based, human; conditions: Sit 3′UTR miR-181a del reporter, 24 hours after transfection
# Procedure: On the other hand, from this wild type sequence, the miR-181a predicted target site (7 bp, UGAAUGU) was deleted by PCR using the following overlapping primers:
# Therefore, the SirT1 3′UTR miR-181a del is obtained.
# (§2) 2×10^5 HEK 293E cells were seeded in 12 well dishes 24 hours before transfection. Cells were transfected using Lipofectamine 2000 (Invitrogen) with 100 ng of pGL3 vectors (i.e. with Sirt-1 3′UTR wt or Sirt-1 3′UTR miR-181a del), 12 pmol of pre-miR-181a or pre-miR scramble sequence (Ambion), and 10 ng of Renilla luciferase pRL-CMV vector. Luciferase activities of cellular extracts were measured 24 hours after transfection, by using a Dual Luciferase Reporter Assay System (Promega); light emission was measured over 10 seconds using an OPTOCOMP I luminometer. Efficiency of transfection was normalised using Renilla luciferase activity.
# Sirt-1 3′UTR wt = assay: Luciferase reporter assay, Sirt-1 3′UTR wt, HEK 293E cells; format: cell-based, human; conditions: Sirt-1 3′UTR wt reporter, 12 pmol pre-miR, 24 hours after transfection
# Procedure: Human Sirt-1 3′UTR was amplified by PCR from the first nucleotide after stop codon to the last nucleotide before polyadenylation signal from human genomic DNA using the following primers:
# The 1940 bp fragment (i.e. pSirT1 3′UTR wt), after SpeI restriction, was ligated to a compatible XbaI linearized pGL3 Control vector (Promega, Madison, Wis., USA).
# as §2, with “miR-138” for “miR-181a”, “pre-miR-138” for “pre-miR-181a”
# 2×10^5 HEK 293E cells were seeded in 12 well dishes 24 hours before transfection. […] Luciferase activities of cellular extracts were measured 24 hours after transfection, by using a Dual Luciferase Reporter Assay System (Promega); light emission was measured over 10 seconds using an OPTOCOMP I luminometer. […]
# [2] = test system: proliferating keratinocytes; assay: Senescence-associated β-galactosidase staining after miR over-expression; format: cell-based; conditions: over-expression in proliferating human primary keratinocytes
# Procedure: (§3) The human primary keratinocytes described in Example 1 are used in this example. Human primary keratinocytes were cultured in EpiLife medium with HKGS growth supplements (Cascade). […] 16 hrs after transfection, the medium was removed and replaced with fresh medium.
# Cells were plated in 6-well culture plates, washed with PBS, and fixed with 2% formaldehyde/0.2% glutaraldehyde in PBS for 5 minutes. After another washing step with PBS, cells were incubated with β-galactosidase staining solution (150 mmol/L NaCl, 2 mmol/L MgCl2, 5 mmol/L potassium ferricyanide, 5 mmol/L potassium ferrocyanide, 40 mmol/L citric acid, 12 mmol/L sodium phosphate, pH 6.0, containing 1 mg/mL 5-bromo-4-chloro-3-indolyl-β-Dgalactoside [X-gal]) for 24 hours at 37° C. The reaction was stopped by replacing the staining solution with 70% glycerol.
# [3] = test system: proliferating keratinocytes; assay: Proliferation by BrdU incorporation (Click-iT EdU flow cytometry) after miR over-expression; format: cell-based; conditions: over-expression in proliferating human primary keratinocytes
# Procedure: as §3
# Methods used to evaluate cell proliferation are generally based on incorporation of bromodeoxyuridine (BrdU) during DNA synthesis. The Click-iT™ EdU flow cytometry assay kit is a novel alternative to BrdU assay (Molecular Probes, Eugene, Oreg., USA). […] Briefly, cells were incubated with EdU for 4 hrs. After incubation, samples were fixed, permeabilized and stained according to the manufacturer's protocol. Cell cycle was analysed using a FACSCalibur flow cytometer (BD Biosciences, San Jose, Calif., USA). Fifteen thousand events were evaluated using the Cell Quest (BD) and Modfit LT (Verity Software; BD) programs.
# SirT1 protein = assay: Western blot of SirT1 in transfected human keratinocytes; format: cell-based; conditions: versus scrambled sequence (Ctrl)
# Procedure: Human primary keratinocytes were cultured in EpiLife medium with HKGS growth supplements (Cascade) and treated with CaCl2 1.2 mM in order to induce the differentiation process. Differentiated cells were harvested after 7 days of treatment for microRNA levels analysis. Human primary keratinocytes were transfected with human pre-miR-138, anti-miR-138 and Cy3-labeled negative control (Ambion, Texas, USA) using the SiPORT neoFX transfection agent (Ambion) according to manufacturer protocols. 16 hrs after transfection, the medium was removed and replaced with fresh medium.
# (§4) Total cell extracts were resolved on a SDS polyacrylamide gel, blotted on a Hybond P PVDF membrane (G&E Healthcare, UK). Membranes were blocked with PBST 5% non fat dry milk, incubated with primary antibodies for 2 h at room temperature, washed and hybridized for 1 h at room temperature using the appropriate horseradish peroxidase-conjugated secondary antibody (rabbit and mouse, BioRad, Hercules, Calif., USA). Detection was performed with the ECL chemiluminescence kit (Perkin Elmer, Waltham, Mass., USA).
# anti-Sirt-1 (Abcam, Cambridge, United Kingdom; 1/500 dilution), anti-β actin (Sigma, St Louis, Minn., USA; 1/5000 dilution), were used.
# The human primary keratinocytes described in Example 1 are used in this example. […]
# CDK6 3′UTR wt = assay: Luciferase reporter assay, CDK6 3′UTR wt, HEK 293E cells; format: cell-based; conditions: CDK6 3′UTR wt reporter, 24 hours after transfection
# Procedure: as §2, with “vectors” for “vectors (i.e. with Sirt-1 3′UTR wt or Sirt-1 3′UTR miR-181a del),”, “pre-miR-191” for “pre-miR-181a”
# CDK6 protein = assay: Western blot of CDK6 in transfected human keratinocytes; format: cell-based; conditions: versus scrambled sequence (Ctrl)
# Procedure: The human primary keratinocytes described in Example 1 are used in this example. Human primary keratinocytes were cultured in EpiLife medium with HKGS growth supplements (Cascade) and treated with CaCl2 1.2 mM in order to induce the differentiation process. Differentiated cells were harvested after 7 days of treatment for microRNA levels analysis. Human primary keratinocytes were transfected with human pre-miR-191, anti-miR-191 and Cy3-labeled negative control (Ambion, Texas, USA) using the SiPORT neoFX transfection agent (Ambion) according to manufacturer protocols. 16 hrs after transfection, the medium was removed and replaced with fresh medium.
# as §4
# Polyclonal anti-CDK-6 (Santa Cruz, sc-177, dilution 1:2000), anti-β actin (Sigma, St Louis, Minn., USA; 1/5000 dilution), were used.
molecule,measurement,setting,value
CCCCC[C@H](O)CC(=O)CCc1ccc(O)c(OC)c1 [Gingerol 6],inhibition of Mir 130a expression,Mir 130a; compound at 6. 10-5%,>20 (37%)
same,inhibition of Mir 191 expression,Mir 191,>20 (24%)
same,inhibition of Mir 181a expression,Mir 181a; compound at 6. 10-5%,>20 (29%)
Oc1ccc(C=Cc2cc(O)cc(O)c2)cc1 [Resveratrol],inhibition of Mir 130a expression,Mir 130a; compound at 4. 10-4%,>20 (25%)
same,inhibition of Mir 181a expression,Mir 181a; compound at 4. 10-4%,>20 (21%)
COC(=O)C1Cc2cc(OC(C)=O)c(OC(C)=O)cc2N1C(C)=O (centres unmarked) [Tryacetyl-leukodopachrome methyl ester],inhibition of Mir 130a expression,Mir 130a; compound at 10-3%,20 (10-3%)
pre-miR-181a: human pre-miR-181a (Ambion) transfected to over-express miR-181a (SEQ ID No. 3) [reference compound],luciferase activity,[1],0.93±0.09 fold over control
same,luciferase activity,Sirt-1 3′UTR wt,0.648±0.1 fold over control
same,senescence as evaluated by SA-β-galactosidase staining,[2]; listed as miR-181a,sufficient per se to induce senescence; also recorded: significantly increase
same,proliferation as evaluated by BrdU incorporation,[3]; listed as miR181a,significantly diminished
same,proliferation as evaluated by BrdU incorporation,[3]; listed as miR-181a,strong effect on inhibition of proliferation
same,SirT1 protein level (Western blot),SirT1 protein,markedly diminished
"pre-miR-191: human pre-miR-191 (Ambion) transfected to over-express miR-191 (SEQ ID No. 4) (nucleic acid, precursor form, further chemistry not given here) CGGCUGGACAGCGGGCAACGGAAUCCCAAAAGCAGCUGUUGUCUCCAGAGCAUUCCAGCUGCGCUUGGAUUUCGUCCCCUGCUCUCCUGCCU",luciferase activity,CDK6 3′UTR wt,0.78±0.1 fold over control
same,senescence as evaluated by SA-β-galactosidase staining,[2]; listed as miR-191,significantly increase; also recorded: sufficient per se to induce senescence
same,CDK6 protein level (Western blot),CDK6 protein,markedly diminished
same,proliferation as evaluated by BrdU incorporation,[3]; listed as miR191,significantly diminished
same,proliferation as evaluated by BrdU incorporation,[3]; listed as miR-191,strong effect on inhibition of proliferation
